Publication PMC9571711, “New Biologically Hybrid Pharmacophore Thiazolidinone-Based Indole Derivatives: Synthesis, In Vitro Alpha-Amylase and Alpha-Glucosidase along with Molecular Docking Investigations” (Molecules, 2022)

Experiments:
[1] = target: crude intestinal α-glucosidase; experiment: In vitro alpha-glucosidase inhibition (p-nitrophenyl-α-D-glucopyranoside); type: biochemical; conditions: ± SEM
Method: 3.6. Alpha-glucosidase inhibition protocol
α-Glucosidase inhibitory activities was determined as per reported methods. 10 μL of test samples (5 mg/mL DMSO solution) were altered in 100 μL of 100 mM-phosphate buffer (pH 6.8) in 96-well microplate and incubated with 50 μL of crude intestinal α-glucosidase for 5 min before 50μL substrate (5 mM, p-nitrophenyl-α-D-glucopyranoside prepared in same buffer) was […]
plus384) for 5 min after incubation with substrate. Individual blanks for test samples were prepared to correct background absorban ce where substrate was replaced with 50μL of buffer.
Control sample contained 10 μL DMSO in place of test samples. Percentage of enzyme inhibition was calculated as (1-B/A) x 100 where A represents absorbance of control without test samples, and B represents absorbance in presence of test samples. […]

melting point	IC50 [1]	Compound
	19.8 ± 0.6 µM	O=C1N/C(=N/c2nccs2)S/C1=C\c1cccc(O)c1 [Compound 19]
234 to 237 °C	29.4 ± 0.9 µM	O=C1N/C(=N/c2nccs2)S/C1=C\c1c(O)cc2cc[nH]c2c1Br [Compound 20, (2Z,5Z)-5-((7-bromo-5-hydroxy-1H-indol-6-yl)methylene)-2-(thiazol-2-ylimino)thiazolidin-4-one]
242 to 245 °C	31.5 ± 0.5 µM	Cc1c(Br)c(/C=C2\S/C(=N\c3nccs3)NC2=O)cc2[nH]ccc12 [Compound 17]
239 to 242 °C	23.3 ± 0.4 µM	Cc1c(/C=C2\S/C(=N\c3nccs3)NC2=O)cc2[nH]ccc2c1Br [Compound 18]
240 to 242 °C	26.7 ± 0.3 µM	O=C1N/C(=N/c2nccs2)S/C1=C\c1cc(Br)c2cc[nH]c2c1Cl [Compound 16]

The next lines start with the compound.

Compound	melting point	IC50 [1]
CN(C)c1cc(/C=C2\S/C(=N\c3nccs3)NC2=O)cc2[nH]ccc12 [Compound 9]	234 to 237 °C	23.2 ± 0.4 µM
O=C1N/C(=N/c2nccs2)S/C1=C\c1cc2[nH]ccc2c(Cl)c1[N+](=O)[O-] [Compound 3]	235 to 237 °C	8.7 ± 0.2 µM
O=C1N/C(=N/c2nccs2)S/C1=C\c1cc2[nH]ccc2c(Cl)c1Cl [Compound 14]	231 to 233 °C	13.5 ± 0.4 µM
O=C1N/C(=N/c2nccs2)S/C1=C\c1cc(O)c2cc[nH]c2c1Cl [Compound 12]	236 to 239 °C	9.1 ± 0.3 µM
O=C1N/C(=N/c2nccs2)S/C1=C\c1cc(O)c2cc[nH]c2c1O [Compound 7]	238 to 241 °C	3.5 ± 0.8 µM
O=C1N/C(=N/c2nccs2)S/C1=C/c1cc(F)c2cc[nH]c2c1 [Compound 4, (2Z,5E)-5-((4-fluoro-1H-indol-6-yl)methylene)-2-(thiazol-2-ylimino)thiazolidin-4-one]	237 to 239 °C	2.7 ± 0.7 µM
O=C1N/C(=N/c2nccs2)S/C1=C\c1c(O)cc2cc[nH]c2c1Cl [Compound 11]	236 to 239 °C	7.85 ± 0.2 µM
N#Cc1cc(/C=C2\S/C(=N\c3nccs3)NC2=O)cc2[nH]ccc12 [Compound 10]	239 to 242 °C	24.6 ± 0.2 µM
O=C1N/C(=N/c2nccs2)S/C1=C\c1cc2[nH]ccc2c(Cl)c1Br [Compound 15]	241 to 243 °C	28.4 ± 0.8 µM
O=C1NC(=Nc2nccs2)SC1=Cc1cc2[nH]ccc2cc1F [Compound 5, (2Z,5E)-5-((5-fluoro-1H-indol-6-yl)methylene)-2-(thiazol-2-ylimino)hiazolidine-4-one]	234 to 236 °C	
COc1cc2cc[nH]c2c(O)c1/C=C1\S/C(=N\c2nccs2)NC1=O [Compound 8]	238 to 241 °C	8.7 ± 0.8 µM
O=C1N/C(=N/c2nccs2)S/C1=C\c1cc(C(F)(F)F)c2cc[nH]c2c1O [Compound 6]	238 to 240 °C	4.5 ± 0.7 µM
